Data reported in publication PMC5624969, “Coupled reactions by coupled enzymes: alcohol to lactone cascade with alcohol dehydrogenase–cyclohexanone monooxygenase fusions” (Applied Microbiology and Biotechnology, 2017).

Key:
[1] = biological target: T1, TmCHMO (Thermocrispum municipale, UniProt A0A1L1QK40); experiment: ThermoFAD, release of FAD on unfolding; type: binding; settings: 10 uM enzyme, +0.5 °C/min
T1 construct: recombinant from E. coli, gene from pBAD-His-Tag-SUMO-TmCHMO
T1 sequence (A0A1L1QK40 1-541): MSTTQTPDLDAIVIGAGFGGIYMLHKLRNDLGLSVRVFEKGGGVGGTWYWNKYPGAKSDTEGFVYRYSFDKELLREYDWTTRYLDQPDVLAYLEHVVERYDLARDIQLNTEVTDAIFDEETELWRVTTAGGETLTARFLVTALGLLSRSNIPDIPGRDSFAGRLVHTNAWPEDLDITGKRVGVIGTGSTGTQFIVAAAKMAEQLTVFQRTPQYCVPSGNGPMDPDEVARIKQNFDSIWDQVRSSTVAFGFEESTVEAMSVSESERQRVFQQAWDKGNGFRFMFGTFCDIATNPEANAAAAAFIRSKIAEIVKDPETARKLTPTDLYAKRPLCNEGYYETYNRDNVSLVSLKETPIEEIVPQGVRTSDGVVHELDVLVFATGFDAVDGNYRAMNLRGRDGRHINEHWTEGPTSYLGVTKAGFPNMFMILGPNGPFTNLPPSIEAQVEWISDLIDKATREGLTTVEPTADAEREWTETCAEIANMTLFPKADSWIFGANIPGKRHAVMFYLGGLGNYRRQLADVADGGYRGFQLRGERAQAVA

[2] = biological target: T1, TmCHMO; experiment: inhibition of thioanisole oxidation, NADPH depletion at […] nm; type: biochemical; settings: read-out: 50% reduction of activity
[3] = biological target: T1, TmCHMO; experiment: as above; type: biochemical; settings: read-out: K I (estimated)

## Cc1cc2nc3c(=O)[nH]c(=O)nc-3n(C[C@H](O)[C@H](O)[C@H](O)COP(=O)(O)OP(=O)(O)OC[C@H]3O[C@@H](n4cnc5c(N)ncnc54)[C@H](O)[C@@H]3O)c2cc1C [FAD]
[1]
  ThermoFAD, release of FAD on unfolding: the release of the FAD from TmCHMO upon unfolding could be detected

## O=C1CCCCCO1 [ε-caprolactone]
[2]
  IC50: 66 mM

## OC1CCCCC1 [cyclohexanol]
[3]
  Ki: < 2 mM
